Assay results as given in ChEMBL document CHEMBL1201862, “PubChem BioAssay data set” (2004).
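The compound was tested at five concentrations on cells cultured in 96-well plates, with a 48-hour exposure period. Abbreviation: GI50, concentration required for 50% inhibition of growth.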 Activity calls are given as the source filed them. No stated cut-off is given here; in the data, active = GI50 up to about 1.1 µM and inactive = higher.

Key:
Assay in all cases: NCI anticancer screen, dose series, 48 h
OVCAR-8 = system: OVCAR-8
BT-549 = system: BT-549
ACHN = system: ACHN
NCI-H23 = system: NCI-H23
MDA-N = system: MDA-N
SR = system: SR
KM12 = system: KM12
MOLT-4 = system: MOLT-4
RPMI-8226 = system: RPMI-8226
CCRF-CEM = system: CCRF-CEM
SF-268 = system: SF-268
UO-31 = system: UO-31
UACC-62 = system: UACC-62
SNB-75 = system: SNB-75
U-251 = system: U-251
CAKI-1 = system: CAKI-1
TK-10 = system: TK-10
OVCAR-4 = system: OVCAR-4
SNB-19 = system: SNB-19
SK-MEL-28 = system: SK-MEL-28
HL-60 = system: HL-60
A498 = system: A498
HOP-92 = system: HOP-92
UACC-257 = system: UACC-257
K562 = system: K562
HCC 2998 = system: HCC 2998
MDA-MB-435 = system: MDA-MB-435
NCI-H460 = system: NCI-H460
MDA-MB-231 = system: MDA-MB-231
SW-620 = system: SW-620
EKVX = system: EKVX
NCI-H226 = system: NCI-H226
HCT-15 = system: HCT-15
SN12C = system: SN12C
NCI/ADR-RES = system: NCI/ADR-RES
MCF7 = system: MCF7
HCT-116 = system: HCT-116
NCI-H522 = system: NCI-H522
DU-145 = system: DU-145
M14 = system: M14
COLO 205 = system: COLO 205
A549 = system: A549
SK-MEL-5 = system: SK-MEL-5
Malme-3M = system: Malme-3M
OVCAR-3 = system: OVCAR-3
PC-3 = system: PC-3
LOX IMVI = system: LOX IMVI
SF-295 = system: SF-295
SF-539 = system: SF-539
OVCAR-5 = system: OVCAR-5
IGROV-1 = system: IGROV-1
786-0 = system: 786-0
SK-OV-3 = system: SK-OV-3
SK-MEL-2 = system: SK-MEL-2
HOP-62 = system: HOP-62
HT-29 = system: HT-29
RXF 393 = system: RXF 393
T47D = system: T47D
Hs-578T = system: Hs-578T

CC1(C)C2CCC(CN)(C2)C1O (configuration not stated)
GI50 (OVCAR-8): > 100 µM (inactive) | GI50 (BT-549): > 100 µM (inactive) | GI50 (ACHN): > 100 µM (inactive) | GI50 (NCI-H23): > 100 µM (inactive) | GI50 (MDA-N): > 100 µM (inactive) | GI50 (SR): > 100 µM (inactive) | GI50 (KM12): > 100 µM (inactive) | GI50 (MOLT-4): > 100 µM (inactive) | GI50 (RPMI-8226): > 100 µM (inactive) | GI50 (CCRF-CEM): > 100 µM (inactive) | GI50 (SF-268): > 100 µM (inactive) | GI50 (UO-31): > 100 µM (inactive) | GI50 (UACC-62): > 100 µM (inactive) | GI50 (SNB-75): > 100 µM (inactive) | GI50 (U-251): > 100 µM (inactive) | GI50 (CAKI-1): > 100 µM (inactive) | GI50 (TK-10): > 100 µM (inactive) | GI50 (OVCAR-4): > 100 µM (inactive) | GI50 (SNB-19): > 100 µM (inactive) | GI50 (SK-MEL-28): > 100 µM (inactive) | GI50 (HL-60): > 100 µM (inactive) | GI50 (A498): > 100 µM (inactive) | GI50 (HOP-92): > 100 µM (inactive) | GI50 (UACC-257): > 100 µM (inactive) | GI50 (K562): > 100 µM (inactive) | GI50 (HCC 2998): > 100 µM (inactive) | GI50 (MDA-MB-435): 65.6 µM (inactive) | GI50 (NCI-H460): > 100 µM (inactive) | GI50 (MDA-MB-231): > 100 µM (inactive) | GI50 (SW-620): > 100 µM (inactive) | GI50 (EKVX): > 100 µM (inactive) | GI50 (NCI-H226): > 100 µM (inactive) | GI50 (HCT-15): > 100 µM | GI50 (SN12C): > 100 µM (inactive) | GI50 (NCI/ADR-RES): 80.2 µM (inactive)

c1ccc(CNc2ncnc3nn[nH]c23)cc1
GI50 (MCF7): > 100 µM (inactive) | GI50 (OVCAR-8): > 100 µM (inactive) | GI50 (HCT-116): > 100 µM (inactive) | GI50 (NCI-H522): > 100 µM (inactive) | GI50 (DU-145): > 100 µM (inactive) | GI50 (ACHN): > 100 µM (inactive) | GI50 (M14): > 100 µM (inactive) | GI50 (NCI-H23): > 100 µM (inactive) | GI50 (COLO 205): > 100 µM (inactive) | GI50 (A549): > 100 µM (inactive) | GI50 (SK-MEL-5): > 100 µM (inactive) | GI50 (MDA-N): > 100 µM (inactive) | GI50 (Malme-3M): > 100 µM (inactive) | GI50 (KM12): > 100 µM (inactive) | GI50 (OVCAR-3): > 100 µM (inactive) | GI50 (MOLT-4): > 100 µM (inactive) | GI50 (CCRF-CEM): > 100 µM (inactive) | GI50 (PC-3): > 100 µM (inactive) | GI50 (LOX IMVI): > 100 µM (inactive) | GI50 (SF-295): > 100 µM (inactive) | GI50 (UO-31): 91 µM (inactive) | GI50 (SF-539): > 100 µM (inactive) | GI50 (OVCAR-5): > 100 µM (inactive) | GI50 (UACC-62): > 100 µM (inactive) | GI50 (SNB-75): > 100 µM (inactive) | GI50 (IGROV-1): > 100 µM (inactive) | GI50 (U-251): > 100 µM (inactive) | GI50 (CAKI-1): > 100 µM (inactive) | GI50 (TK-10): > 100 µM (inactive) | GI50 (OVCAR-4): > 100 µM (inactive) | GI50 (786-0): > 100 µM (inactive) | GI50 (SNB-19): > 100 µM (inactive) | GI50 (SK-MEL-28): > 100 µM (inactive) | GI50 (HL-60): > 100 µM (inactive) | GI50 (A498): 34 µM (inactive) | GI50 (SK-OV-3): > 100 µM (inactive) | GI50 (SK-MEL-2): > 100 µM (inactive) | GI50 (HOP-92): 56.8 µM (inactive) | GI50 (HOP-62): > 100 µM (inactive) | GI50 (UACC-257): > 100 µM (inactive) | GI50 (HT-29): > 100 µM (inactive) | GI50 (RXF 393): > 100 µM (inactive) | GI50 (K562): > 100 µM (inactive) | GI50 (HCC 2998): > 100 µM (inactive) | GI50 (MDA-MB-435): > 100 µM (inactive) | GI50 (T47D): > 100 µM (inactive) | GI50 (MDA-MB-231): > 100 µM (inactive) | GI50 (SW-620): > 100 µM (inactive) | GI50 (EKVX): > 100 µM (inactive) | GI50 (NCI-H226): > 100 µM (inactive) | GI50 (HCT-15): > 100 µM | GI50 (SN12C): > 100 µM (inactive) | GI50 (NCI/ADR-RES): > 100 µM (inactive)

CN(CCO)Cc1ncccc1O
GI50 (MCF7): > 100 µM (inactive) | GI50 (OVCAR-8): > 100 µM (inactive) | GI50 (Hs-578T): > 100 µM (inactive) | GI50 (BT-549): > 100 µM (inactive) | GI50 (NCI-H522): > 100 µM (inactive) | GI50 (DU-145): > 100 µM (inactive) | GI50 (ACHN): > 100 µM (inactive) | GI50 (M14): > 100 µM (inactive) | GI50 (NCI-H23): > 100 µM (inactive) | GI50 (COLO 205): > 100 µM (inactive) | GI50 (A549): > 100 µM (inactive) | GI50 (SK-MEL-5): > 100 µM (inactive) | GI50 (SR): > 100 µM (inactive) | GI50 (Malme-3M): > 100 µM (inactive) | GI50 (KM12): > 100 µM (inactive) | GI50 (OVCAR-3): > 100 µM (inactive) | GI50 (MOLT-4): 25.5 µM (inactive) | GI50 (RPMI-8226): > 100 µM (inactive) | GI50 (CCRF-CEM): 68.5 µM (inactive) | GI50 (PC-3): > 100 µM (inactive) | GI50 (LOX IMVI): > 100 µM (inactive) | GI50 (SF-268): > 100 µM (inactive) | GI50 (SF-295): > 100 µM (inactive) | GI50 (UO-31): > 100 µM (inactive) | GI50 (SF-539): > 100 µM (inactive) | GI50 (OVCAR-5): > 100 µM (inactive) | GI50 (UACC-62): > 100 µM (inactive) | GI50 (SNB-75): > 100 µM (inactive) | GI50 (IGROV-1): > 100 µM (inactive) | GI50 (U-251): > 100 µM (inactive) | GI50 (CAKI-1): > 100 µM (inactive) | GI50 (TK-10): > 100 µM (inactive) | GI50 (OVCAR-4): > 100 µM (inactive) | GI50 (SNB-19): > 100 µM (inactive) | GI50 (SK-MEL-28): > 100 µM (inactive) | GI50 (HL-60): 64.3 µM (inactive) | GI50 (A498): > 100 µM (inactive) | GI50 (SK-OV-3): > 100 µM (inactive) | GI50 (SK-MEL-2): > 100 µM (inactive) | GI50 (HOP-92): > 100 µM (inactive) | GI50 (HOP-62): > 100 µM (inactive) | GI50 (UACC-257): > 100 µM (inactive) | GI50 (HT-29): > 100 µM (inactive) | GI50 (RXF 393): > 100 µM (inactive) | GI50 (K562): 0.495 µM (active) | GI50 (MDA-MB-435): > 100 µM (inactive) | GI50 (T47D): > 100 µM (inactive) | GI50 (NCI-H460): > 100 µM (inactive) | GI50 (MDA-MB-231): > 100 µM (inactive) | GI50 (SW-620): > 100 µM (inactive) | GI50 (EKVX): > 100 µM (inactive) | GI50 (NCI-H226): > 100 µM (inactive) | GI50 (HCT-15): > 100 µM | GI50 (NCI/ADR-RES): > 100 µM (inactive)
